Results: ChEMBL document CHEMBL4043116, “KBE009: An antimalarial bestatin-like inhibitor of the Plasmodium falciparum M1 aminopeptidase discovered in an Ugi multicomponent reaction-derived peptidomimetic library” (Bioorg Med Chem, 2017)
Calls of active or inactive are those of the source. Unless noted, the rule behind the calls is not given here.

What was measured:
Plasmodium falciparum [1] = assay: Inhibition of recombinant Plasmodium falciparum M1 aminopeptidase assessed as residual activity at 20 uM using Ala-AMC as substrate pretreated for 30 mins followed by substrate addition by fluorescence assay relative to control
Plasmodium falciparum [2] = assay: Antimalarial activity against synchronized ring stage of […] Plasmodium falciparum 3D7 infected in human erythrocytes assessed as parasite growth at 25 uM after 72 hrs by YOYO-1 staining based flow cytometric analysis relative to control; type: functional
Plasmodium falciparum [3] = assay: Antimalarial activity against synchronized ring stage of […] Plasmodium falciparum 3D7 infected in human erythrocytes assessed as parasite growth at 25 uM after 48 hrs by Giemsa staining based microscopic analysis; type: functional, cell-based
Erythrocyte = assay: Hemolytic activity against human erythrocytes at 25 uM measured after 48 hrs; type: ADME, cell-based
Plasmodium falciparum [4] = assay: (§1) Antimalarial activity against asynchronized chloroquine-resistant Plasmodium falciparum FcB1/Columbia assessed as reduction in [3H]-hypoxanthine incorporation by measuring parasite growth at 50 uM pretreated for 24 hrs followed by [3H]-hypoxanthine addition after 24 hrs by microbeta scintillation counting analysis relative to control; type: functional; parameters: scale not given: the % may be the effect or the level left
Plasmodium falciparum [5] = assay: as §1, with “5” for “50”; type: functional; parameters: scale not given: the % may be the effect or the level left
[6] = Inhibition of recombinant Plasmodium falciparum M1 aminopeptidase using Ala-AMC as substrate pretreated for 30 mins followed by substrate addition by fluorescence assay
Plasmodium falciparum [7] = assay: Antimalarial activity against asynchronized chloroquine-resistant Plasmodium falciparum FcB1/Columbia assessed as reduction in [3H]-hypoxanthine incorporation pretreated for 24 hrs followed by [3H]-hypoxanthine addition after 24 hrs by microbeta scintillation counting analysis; type: functional
Plasmodium falciparum [8] = assay: Antimalarial activity against synchronized ring stage of […] Plasmodium falciparum 3D7 infected in human erythrocytes after 48 hrs by Giemsa staining based microscopic analysis; type: functional, cell-based; conditions: 3D7, 48 h
Aminopeptidase N = molecular target: T1, Aminopeptidase N (Sus scrofa, UniProt P15145); assay: Inhibition of porcine kidney cortex aminopeptidase N using Leu-p-nitroanilide as substrate pretreated for 30 mins followed by substrate addition […]
T1 sequence (P15145 whole entry): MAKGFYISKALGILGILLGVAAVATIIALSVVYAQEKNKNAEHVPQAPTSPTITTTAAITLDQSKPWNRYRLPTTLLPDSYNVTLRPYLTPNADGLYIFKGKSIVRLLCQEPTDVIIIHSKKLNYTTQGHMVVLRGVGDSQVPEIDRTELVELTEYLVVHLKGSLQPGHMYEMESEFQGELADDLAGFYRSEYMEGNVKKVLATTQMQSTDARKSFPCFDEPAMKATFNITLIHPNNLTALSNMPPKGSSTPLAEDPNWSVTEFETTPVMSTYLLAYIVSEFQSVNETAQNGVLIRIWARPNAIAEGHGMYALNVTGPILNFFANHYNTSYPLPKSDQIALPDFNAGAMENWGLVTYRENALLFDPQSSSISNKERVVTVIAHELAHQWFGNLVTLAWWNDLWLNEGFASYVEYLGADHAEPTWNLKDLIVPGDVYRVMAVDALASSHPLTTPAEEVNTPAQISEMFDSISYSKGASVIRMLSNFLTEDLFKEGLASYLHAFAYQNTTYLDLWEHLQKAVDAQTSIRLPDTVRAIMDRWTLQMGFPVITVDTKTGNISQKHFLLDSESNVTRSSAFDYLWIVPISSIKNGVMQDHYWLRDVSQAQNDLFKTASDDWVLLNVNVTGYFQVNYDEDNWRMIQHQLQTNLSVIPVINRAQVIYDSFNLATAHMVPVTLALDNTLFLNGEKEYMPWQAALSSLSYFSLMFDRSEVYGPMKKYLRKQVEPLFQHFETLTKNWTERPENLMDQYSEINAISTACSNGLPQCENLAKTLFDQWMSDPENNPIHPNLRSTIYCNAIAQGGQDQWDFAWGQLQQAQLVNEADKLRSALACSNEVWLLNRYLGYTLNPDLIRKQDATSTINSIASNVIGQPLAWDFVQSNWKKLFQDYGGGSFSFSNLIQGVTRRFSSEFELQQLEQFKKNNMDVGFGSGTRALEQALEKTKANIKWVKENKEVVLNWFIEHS

[9] = Selectivity index, ratio of Ki for recombinant Plasmodium falciparum M1 aminopeptidase to Ki for porcine kidney cortex aminopeptidase N
[10] = molecular target: T2, Aminopeptidase N (Sus scrofa) (UniProt P15145); assay: Inhibition of porcine kidney cortex aminopeptidase N up to 100 uM using Leu-p-nitroanilide as substrate […]
T2 sequence (whole entry): T1 sequence (P15145 whole entry)

HUVEC = assay: Cytotoxicity against HUVEC assessed as reduction in cell viability up to 200 uM by MTT assay; type: cell-based; conditions: human
[11] = Inhibition of Plasmodium falciparum M1 aminopeptidase using Ala-AMC as substrate by spectrofluorimetric assay
Plasmodium falciparum [12] = assay: Inhibition of Plasmodium falciparum M1 aminopeptidase at 20 uM using Arg-AMC as substrate measured after 5 mins by fluorescence assay relative to control
Plasmodium falciparum [13] = assay: Antimalarial activity against synchronized ring stage of […] Plasmodium falciparum 3D7 infected in human erythrocytes assessed as parasite growth at 1 uM after 72 hrs by YOYO-1 staining based flow cytometric analysis relative to control; type: functional

SMILES	Activity (Plasmodium falciparum [1]) [%]	Activity (Plasmodium falciparum [2]) [%]	Activity (Plasmodium falciparum [3])	Activity (Erythrocyte)	Activity (Plasmodium falciparum [4])	Activity (Plasmodium falciparum [5])	Ki [6] [µM]	IC50 (Plasmodium falciparum [7]) [µM]	IC50 (Plasmodium falciparum [8]) [µM]	Ki (Aminopeptidase N) [µM]	Ratio Ki [9]	inhibition [10]	Activity (HUVEC)	IC50 [11] [µM]	inhibition (Plasmodium falciparum [12]) [%]	Activity (Plasmodium falciparum [13]) [%]
CC(C)C[C@@H](C(=O)O)N(C(=O)[C@@H](N)Cc1ccccc1)C(C(=O)NCC(=O)O)c1ccccc1 (some centres not stated)	73	88	Active	Non-Toxic	89 - 97.5%	97 - 99%										
CC(C)C[C@H](NCC(=O)NC1CCCCC1)C(=O)O	96	60	Active	Non-Toxic	69 - 90%	97 - 99%										
O=C(CN[C@@H](Cc1c[nH]c2ccccc12)C(=O)O)NC1CCCCC1	29	43	Active	Non-Toxic	31 - 39.5%	83 - 92.5%	4.3	37	25	24	5.6					
CC(C)C[C@@H](C(=O)O)N(C(=O)[C@@H](N)Cc1ccccc1)C(C(=O)NCc1ccccc1)c1ccccc1 (some centres not stated)	83	66	Active	Non-Toxic	39 - 55.5%	65 - 90%										
O=C(CN[C@@H](Cc1ccccc1)C(=O)O)NC1CCCCC1	48	53	Active	Non-Toxic	21.5 - 56%	84.5 - 99%	6.1	29	37	21	3.4					
O=C(NC1CCCCC1)C(N[C@@H](Cc1ccccc1)C(=O)O)c1ccccc1 (some centres not stated)	24	42	Active	Non-Toxic			1.9		26							
CC(C)C[C@@H](C(=O)O)N(CC(=O)NCc1ccccc1)C(=O)[C@@H](N)Cc1ccccc1	91	89	Active	Non-Toxic	79 - 100%	91 - 93.5%										
CC(C)C[C@H](NC(C(=O)NC1CCCCC1)c1ccccc1)C(=O)O (some centres not stated)	40	82	Active	Non-Toxic	15.5 - 23%	85.5 - 93%										
CC(C)C[C@@H](C(=O)O)N(C(=O)[C@@H](N)Cc1ccccc1)C(C(=O)NCc1ccccc1)c1ccco1 (some centres not stated)	48	54	Active	Non-Toxic	2.5 - 4.5%	83.5 - 93.5%	0.4	16	18		> 250	inactive	Non-Toxic	82		
CC[C@H](C)[C@H](NCC(=O)NC1CCCCC1)C(=O)O	100	93	Active	Non-Toxic	1.5 - 4.5%	79.5 - 86.5%										
CC(C)C[C@H](NC(=O)[C@@H](O)[C@H](N)Cc1ccccc1)C(=O)O [UBENIMEX]	1.2	36		Non-Toxic			< 0.16	3.3	21					< 0.31	50	
CC(C)C[C@H](N)C(=O)N(CC(=O)NCc1ccccc1)[C@H](C(=O)O)C(C)C	85	65	Active	Non-Toxic	67 - 78%	76.5 - 79%										
CCN(CC)CCCC(C)Nc1ccnc2cc(Cl)ccc12 (configuration not stated) [CHLOROQUINE]																25.9
